Experimental data: patent publication US20250145600A1, “2-((4-((S)-2-(4-CHLORO-2-FLUOROPHENYL)-2-METHYLBENZO[D][1,3]DIOXOL-4-YL)PIPERIDIN-1-YL)METHYL)-1-(((S)-OXETAN-2-YL)METHYL)-1H-IMIDAZOLE DERIVATIVES AS ACTIVATORS OF THE GLP1 RECEPTOR FOR THE TREATMENT OF OBESITY” (Novartis AG, priority 2022, published 2025)

Target: human GLP1R (hGLP1R) (Homo sapiens, UniProt P43220)
Test: Human GLP1R cAMP agonist assay (GloSensor cAMP Assay)
Format: cell-based
Settings: HEK293-SNAP-hGLP1R-GloSensor cells
Description: Compounds of formula (I) according to the invention were tested in the following cellular assays that measure the intracellular cAMP concentration, beta-arrestin recruitment and receptor internalization. The cAMP is generated by the activation of GLP1R. The extent to which the GLP1R is internalized into the cell and away from the plasma membrane following activation is also shown in Table 2. EC50 for each assay is defined as the concentration of the compound that leads to half of the maximum response (after baseline correction). Emax is defined as the maximum response observed for the test compound, normalized to the maximum response observed for the endogenous ligand (GLP1(7-36)) to GLP1R.
Human GLP1R cAMP Agonist Assay
The agonist activity of compounds was determined using the GloSensor™ cAMP Assay (Promega Corp.), which measures changes in the intracellular concentration of cAMP after ligand activation of GPCRs. The assay uses a biosensor encoded by pGloSensor™-22F cAMP plasmid (Promega, cat #E2301) with cAMP binding domains fused to a mutant form of Photinus pyralis luciferase. Binding to cAMP causes conformational changes that promote large increases in light output, which can be measured by a luminescence detector. HEK293-SNAP-hGLP1R-GloSensor cells stably overexpressing the human GLP1 receptor (hGLP1R) and pGloSensor™-22F were seeded in white 384-well poly-D-Lysine coated plates (Greiner Bio One, cat #781945) in CO2-independent media (Gibco cat #18045-088 with 1.0% FBS, 2 mM L-glutamine, penicillin and streptomycin) and incubated overnight at 37° C., 5% CO2 with humidity. The assay was started the following morning by adding an equal volume of CO2-independent media containing 4% v/v dilution of the GloSensor substrate (Promega, cat #E1291) to all wells. The cell plate was incubated at rt for 2 h in the dark. The Biomek 7 (Beckman Coulter) instrument was used for the liquid handling steps. To generate duplicate dose response curves, 3-fold serially diluted compounds were added in to the cell assay plate to a final volume of 60 μL with final concentrations ranging from 30 μM through 0.06 μM in CO2-independent media containing 0.1% BSA, 0.5 mM IBMX and 0.4% DMSO. In the same plate and assay buffer as the tested compounds, were EC100 control wells containing GLP1 (7-36) peptide (Bachem, cat #H-6795) at a final concentration of 2 nM and also EC0 control wells containing no peptide. This plate was incubated at rt in the dark for 12 min after adding the compounds to the cells. Luminescence was then measured with an Envision 2104 Multilabel reader with “TRF Light Unit, 337 nm” (PerkinElmer) using the Ultra-Sensitive protocol setting “384-well US luminescence detector” with the 384-well luminescence aperture, 0.1 seconds per well. cAMP activity was calculated as percent of the GLP1 (7-36) EC100 control wells: [(sample signal−mean EC0 signal)/(mean EC100 of GLP1 (7-36) signal−mean EC0 signal)}*100. Curve fitting for EC50 determinations was performed in the Helios module of the software package DAVID. The 4-parameter logistic model, Hill slope was used: y=Ainf+(A0−Ainf)/(1+(x/AC50)^Hill Slope) where y is the functional response; x is the compound concentration; A0 is the minimum value (at 0 dose); Ainf is the maximum value (at infinite dose); AC50 corresponds to the point of inflection (i.e. the point on the sigmoid shaped curve halfway between A0 and Ainf). The EC50 value was represented by the AC50 value calculated from Helios in μM. Emax is the maximal activity detected within the concentration range, derived from the fitted curve.
327 μL of Opti-MEM medium (Gibco, cat #31985-062) were mixed with 12 μL of FuGENE® HD (Promega, cat #E2311) and incubated at rt for 5 min. Then 8.2 μL (4 μg, 0.485 μg/μL solution) of pSNAP-hGLP1R plasmid (Cisbio, cat #PSNAP-GLP1) encoding human GLP1R (NCBI Reference Sequence: NM_002062.3) fused with Cisbio's SNAP tag was added in to the Fugene HD/Opti-MEM mix, and incubated at rt for 20 min. […]

human GLP1R (hGLP1R), sequence (P43220 24-463): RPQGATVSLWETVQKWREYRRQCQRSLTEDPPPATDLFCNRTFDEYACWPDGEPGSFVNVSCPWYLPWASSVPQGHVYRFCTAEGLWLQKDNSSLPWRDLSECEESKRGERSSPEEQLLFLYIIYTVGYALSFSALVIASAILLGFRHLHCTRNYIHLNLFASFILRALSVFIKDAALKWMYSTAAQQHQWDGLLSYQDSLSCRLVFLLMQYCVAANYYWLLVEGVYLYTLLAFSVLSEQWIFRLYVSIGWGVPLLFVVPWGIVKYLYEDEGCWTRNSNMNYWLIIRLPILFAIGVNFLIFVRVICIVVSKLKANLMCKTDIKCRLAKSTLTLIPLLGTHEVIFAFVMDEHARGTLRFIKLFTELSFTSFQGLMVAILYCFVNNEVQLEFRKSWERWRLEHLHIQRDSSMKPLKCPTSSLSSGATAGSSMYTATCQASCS

With `Cc1c(-c2ccc(C(=O)O)o2)nc(CN2CCC(c3cccc4c3O[C@@](C)(c3ccc(Cl)cc3F)O4)CC2)n1C[C@@H]1CCO1` [Compound C-24, 5-(2-((4-((S)-2-(4-chloro-2-fluorophenyl)-2-methylbenzo[d][1,3]dioxol-4-yl)piperidin-1-yl)methyl)-5-methyl-1-(((S)-oxetan-2-yl)methyl)-1H-imidazol-4-yl)furan-2-carboxylic acid] the Emax (cAMP activity as percent of GLP1 (7-36) EC100 control) was 113% and the EC50 (intracellular cAMP, 12 min at rt) was 0.102 nM.
